Experimental data published in patent US20130172324A1, “METHOD FOR TREATING CARDIOVASCULAR DISEASES USING RHO KINASE INHIBITOR COMPOUNDS” (priority 2008, published 2013).
Like-named read-outs stand apart in the source and are kept apart here.

Tested on: rat trachea rings
Assay: Tracheal relaxation assay (carbachol precontracted rings);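 further: isometric tension of rat tracheal rings in Krebs buffer with 1 µM indomethacin, compounds added cumulatively at 30 min intervals, basal tension subtracted, fit to Hill equation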
Conditions: for Percentage of carbachol-induced contraction at 10 μM compound, Avg % / Percentage of carbachol-induced contraction at 1 μM compound, Avg %: 1 μM carbachol; for IC50: read-out: IC50 Avg; for Trachael Ring Contraction, %: average percentage of carbachol-induced rat tracheal ring contraction at 1 μM of test compound
[1] = relaxation of 1 μM carbachol precontracted rat tracheal rings

Protocol: The effects of compounds to induce relaxation of pre-contracted rat trachealis were determined. […] Trachea were excised, cleaned of connective tissue and cut into cylindrical segments of 2-3 mm length. Two stainless steel wires were guided through the lumen of the tracheal ring. One wire was fixed in the tissue bath and the other was connected to a force transducer via surgical silk. […] Indomethacin (1 μM), a cyclooxygenase inhibitor, was added to the Krebs buffer and was present throughout the experiments. Contractile tensions were measured using an isometric force transducer (Grass Instruments) and signals were analyzed using specialized software (Chart v5.5, ADInstruments). The preparations were allowed to equilibrate at a resting tension of 0.3 to 0.5 gm prior to two challenges with 60 mM KCl to assess tissue viability. After washing, tissues were treated with 1 μM carbachol for 10 to 15 minutes to induce a contractile response. Test Compounds were added cumulatively to the bath every 30 minutes and reductions in tension were recorded. Basal tension was subtracted from all values and data were reported as a percentage of the maximal carbachol-induced contraction. Data were fit to the Hill equation using GraphPad Prism v5 software.

| SMILES | Percentage of carbachol-induced contraction at 10 μM compound, Avg % [%] | Percentage of carbachol-induced contraction at 1 μM compound, Avg % [%] | Trachael Ring Contraction, % [%] | other results |
| --- | --- | --- | --- | --- |
| NC(=O)Cn1ccc2ccc(CN3CCC[C@H](Nc4ccc5[nH]ncc5c4)C3)cc21 [Compound 1.107, (S)-2-(6-((3-(1H-indazol-5-ylamino)piperidin-1-yl)methyl)-1H-indol-1-yl)acetamide] | 9.9 |  |  | IC50 (Rattus norvegicus): 1240 nM |
| CCS(=O)(=O)Nc1cccc(CN2CC[C@@H](Nc3cccc4cnccc34)C2)c1 [Compound 2.041, (R)-N-(3-((3-(isoquinolin-5-ylamino)pyrrolidin-1-yl)methyl)phenyl)ethanesulfonamide] | −5.4 |  |  | IC50 (Rattus norvegicus): 162 nM |
| Fc1ccc(CN2CCC[C@H](Nc3ccc4[nH]ncc4c3)C2)cc1F [Compound 1.072, (S)-N-(1-(3,4-difluorobenzyl)piperidin-3-yl)-1H-indazol-5-amine] |  | 33.1 |  |  |
| c1cc2cc(CN3CCC[C@H](Nc4ccc5[nH]ncc5c4)C3)ccc2o1 [Compound 1.150, (S)-N-(1-(benzofuran-5-ylmethyl)piperidin-3-yl)-1H-indazol-5-amine] |  | 39.7 | 40 |  |
| CCS(=O)(=O)Nc1cccc(CN2CCC[C@@H](Nc3ccc4[nH]ncc4c3)C2)c1 [Compound 1.123, (R)-N-(3-((3-(1H-indazol-5-ylamino)piperidin-1-yl)methyl)phenyl)ethanesulfonamide] | 4.6 | 46.7 | 47 | IC50 (Rattus norvegicus): 45 nM |
| NCc1cccc(CN2CCC[C@H](Nc3ccc4[nH]ncc4c3)C2)c1 [Compound 1.184, (S)-N-(1-(3-(aminomethyl)benzyl)piperidin-3-yl)-1H-indazol-5-amine] |  | 88.6 |  |  |
| O=S(=O)(c1cccc2cnccc12)N1CCCNCC1 [Fasudil, reference compound] |  |  |  | Percentage of carbachol-induced contraction at 10 μM compound, Avg % (listed as fasudil): 43.0%; IC50 Avg [1]: could not be obtained |
| C[C@@H](N)c1ccc(C(=O)Nc2ccnc3[nH]ccc23)cc1 [Compound Y-39983, reference compound] | −6.0 | 26.5 |  | IC50 [1]: 190 nM |
| CCOC(=O)COc1cccc(CN2CCC[C@H](Nc3ccc4[nH]ncc4c3)C2)c1 [Compound 1.200, (S)-ethyl 2-(3-((3-(1H-indazol-5-ylamino)piperidin-1-yl)methyl)phenoxy)acetate] |  | 91.5 | 92 |  |
| c1cc2ccc(CN3CCC[C@H](Nc4ccc5[nH]ncc5c4)C3)cc2[nH]1 [Compound 1.148, (S)-N-(1-((1H-indol-6-yl)methyl)piperidin-3-yl)-1H-indazol-5-amine] |  | 51.2 | 51 |  |
| Cc1ccc(CN2CCC[C@H](Nc3ccc4[nH]ncc4c3)C2)cc1OCCO [Compound 1.152, (S)-2-(5-((3-(1H-indazol-5-ylamino)piperidin-1-yl)methyl)-2-methylphenoxy)ethanol] |  | 34.4 | 34 |  |
| C#Cc1cccc(CN2CCC[C@H](Nc3ccc4[nH]ncc4c3)C2)c1 [Compound 1.153, (S)-N-(1-(3-ethynylbenzyl)piperidin-3-yl)-1H-indazol-5-amine] |  | 40.9 | 41 |  |
| O=C(O)COc1cccc(CN2CCC[C@H](Nc3ccc4[nH]ncc4c3)C2)c1 [Compound 1.196, (S)-2-(3-((3-(1H-indazol-5-ylamino)piperidin-1-yl)methyl)phenoxy)acetic acid] |  | 96.2 |  |  |
| Clc1ccc(CN2CCC[C@H](Nc3ccc4[nH]ncc4c3)C2)cc1 [Compound 1.141, (S)-N-(1-(4-chlorobenzyl)piperidin-3-yl)-1H-indazol-5-amine] |  | 35.3 | 35 |  |
| CSc1ccc(CN2CCC[C@@H](Nc3ccc4[nH]ncc4c3)C2)cc1 [Compound 1.074, (R)-N-(1-(4-(methylthio)benzyl)piperidin-3-yl)-1H-indazol-5-amine] | −15.1 | 39.6 | 40 | IC50 (Rattus norvegicus): 729 nM |
| CS(=O)(=O)Nc1cccc(CN2CCC[C@H](Nc3cccc4cnccc34)C2)c1 [Compound 2.037, (S)-N-(3-((3-(isoquinolin-5-ylamino)piperidin-1-yl)methyl)phenyl)methanesulfonamide] | 21.3 |  |  | IC50 (Rattus norvegicus): 2120 nM |
| CSc1ccc(CN2CCC[C@H](Nc3ccc4[nH]ncc4c3)C2)cc1 [Compound 1.075, (S)-N-(1-(4-(methylthio)benzyl)piperidin-3-yl)-1H-indazol-5-amine] |  | 39.1 | 39 |  |
| CC(=O)NCc1cccc(CN2CCC[C@H](Nc3ccc4[nH]ncc4c3)C2)c1 [Compound 1.197] |  | 41.7 | 42 |  |
| Cc1ccc(CN2CCC[C@H](Nc3cccc4cnccc34)C2)cc1 [Compound 2.045, (S)-N-(1-(4-methylbenzyl)piperidin-3-yl)isoquinolin-5-amine] | 13.6 |  |  | IC50 (Rattus norvegicus): 2720 nM |
| c1cc2cc(CN3CCC[C@H](Nc4ccc5[nH]ncc5c4)C3)ccc2[nH]1 [Compound 1.149, (S)-N-(1-((1H-indol-5-yl)methyl)piperidin-3-yl)-1H-indazol-5-amine] |  | 34.4 | 34 |  |
| Clc1ccc(CN2CCC[C@@H](Nc3ccc4[nH]ncc4c3)C2)cc1 [Compound 1.132, (R)-N-(1-(4-chlorobenzyl)piperidin-3-yl)-1H-indazol-5-amine] |  | 42.4 | 42 |  |
| Cc1ccc(CN2CCC[C@H](Nc3ccc4[nH]ncc4c3)C2)cc1O [Compound 1.151, (S)-5-((3-(1H-indazol-5-ylamino)piperidin-1-yl)methyl)-2-methylphenol] |  | 33.1 |  |  |
| Cc1cncc2cccc(S(=O)(=O)N3CCCNC[C@@H]3C)c12 [Compound H-1152, reference compound] | −6.5 |  |  |  |
| CCS(=O)(=O)Nc1cccc(CN2CCC[C@H](Nc3ccc4[nH]ncc4c3)C2)c1 [Compound 1.124, (S)-N-(3-((3-(1H-indazol-5-ylamino)piperidin-1-yl)methyl)phenyl)ethanesulfonamide] | 19.7 | 37.8 | 38 | IC50 (Rattus norvegicus): 21 nM |
| Oc1cccc(CN2CCC[C@H](Nc3ccc4[nH]ncc4c3)C2)c1 [Compound 1.163, (S)-3-((3-(1H-indazol-5-ylamino)piperidin-1-yl)methyl)phenol] |  | 35.4 | 35 |  |
| Cc1ccc(CN2CCC[C@@H](Nc3ccc4[nH]ncc4c3)C2)cc1O [Compound 1.173, (R)-5-((3-(1H-indazol-5-ylamino)piperidin-1-yl)methyl)-2-methylphenol] |  | 32.8 | 33 |  |
| CS(=O)(=O)Nc1cc(CN2CCC[C@H](Nc3ccc4[nH]ncc4c3)C2)ccc1Cl [Compound 1.213, (S)-N-(5-((3-(1H-indazol-5-ylamino)piperidin-1-yl)methyl)-2-chlorophenyl)methanesulfonamide] |  | 29.3 | 29 |  |
| CS(=O)(=O)Nc1cc(CN2CCC[C@@H](Nc3ccc4[nH]ncc4c3)C2)ccc1Cl [Compound 1.212, (R)-N-(5-((3-(1H-indazol-5-ylamino)piperidin-1-yl)methyl)-2-chlorophenyl)methanesulfonamide] |  | 40.1 | 40 |  |
| Cc1ccc(CN2CCC[C@H](Nc3ccc4[nH]ncc4c3)C2)cc1 [Compound 1.078, (S)-N-(1-(4-methylbenzyl)piperidin-3-yl)-1H-indazol-5-amine] |  | 39.6 |  |  |
